Patent publication US12054498B2, “Heteroaromatic macrocyclic ether chemotherapeutic agents” (Nuvalent, Inc., priority 2020, dated 2024)

Tests used:
[1] = test system: TPM3-NTRK1-wt IC50 / primary target IC50 (e.g. CD74-ROS1-wt); test: TRKA selectivity in Ba/F3 cells (TRKA potency divided by primary target potency); type: cell-based; settings: for TPM3-NTRK1-wt/CD74-ROS1-G2032R selectivity ratio: TRKA potency / CD74-ROS1-G2032R potency; for TPM3-NTRK1-wt/CD74-ROS1-wt selectivity ratio: TRKA potency / CD74-ROS1-wt potency; for TPM3-NTRK1-wt/EML4-ALK-L1196M-G1202R selectivity ratio: TRKA potency / EML4-ALK-L1196M-G1202R potency; for TPM3-NTRK1-wt/EML4-ALK-wt selectivity ratio: TRKA potency / EML4-ALK-wt potency
Procedure: TRKA selectivity was calculated by dividing a compound's TRKA potency by its primary target potency (e.g. TPM3-NTRK1-wt IC50/CD74-ROS1-wt IC50). Compound selectivity can be interpreted by binning ratio values: bin A for very high selectivity, ratio >30-fold; bin B for high selectivity, ratio >10-fold; bin C for moderate selectivity, ratio ≥1; and bin D for low selectivity, ratio <1. […] (nd=not determined).

[2] = molecular target: T1, Ba/F3 cells CD74-ROS1 G2032R (Homo sapiens, UniProt P08922, G2032R); test: Ba/F3 cell proliferation assay, CD74-ROS1 G2032R; type: cell-based; settings: 72 hours, CellTiter-Glo
T1 construct: fusion of the C-terminus of ROS1 with the N-terminus of various partner proteins; host or cells: Ba/F3 (RIKEN), retroviral pMSCV-puro; the other entry of the earlier key: CD74 (P04233, HLA class II histocompatibility antigen gamma chain)
T1 sequence (P08922 1883-2347 G2032R limits assumed): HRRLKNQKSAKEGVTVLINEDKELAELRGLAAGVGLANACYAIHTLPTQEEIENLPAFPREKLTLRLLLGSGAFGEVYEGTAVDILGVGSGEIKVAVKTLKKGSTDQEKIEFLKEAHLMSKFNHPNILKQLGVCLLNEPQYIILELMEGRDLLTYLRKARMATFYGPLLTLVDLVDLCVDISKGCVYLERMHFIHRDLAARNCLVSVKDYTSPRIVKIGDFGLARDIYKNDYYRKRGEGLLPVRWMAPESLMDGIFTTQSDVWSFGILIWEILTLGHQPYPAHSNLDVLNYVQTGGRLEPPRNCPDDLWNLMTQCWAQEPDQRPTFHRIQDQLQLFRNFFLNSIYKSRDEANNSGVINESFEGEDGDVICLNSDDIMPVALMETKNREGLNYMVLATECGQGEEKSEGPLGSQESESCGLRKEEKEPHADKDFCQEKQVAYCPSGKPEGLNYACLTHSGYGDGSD
Procedure, shortened: (§1)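 IL-3-independent Ba/F3 CD74-ROS1 lines, puromycin-selected monoclones; 1,000 cells/well, plated 1 d before dosing; 3-fold serial dilutions, 72 h; CellTiter-Glo luminescence; IC50 by 4-parameter logistic regression.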

[3] = molecular target: T2, ROS1-G2032R (Homo sapiens, UniProt P08922, G2032R); test: Biochemical kinase assay, ROS1-G2032R kinase domain; settings: apparent inhibitory constant, Morrison equation; ATP 2 mM in substrate solution; read-out: ROS1-G2032R Ki^app
T2 construct: purchased SignalChem R14-12BG
T2 sequence (P08922 1945-2222 G2032R limits assumed): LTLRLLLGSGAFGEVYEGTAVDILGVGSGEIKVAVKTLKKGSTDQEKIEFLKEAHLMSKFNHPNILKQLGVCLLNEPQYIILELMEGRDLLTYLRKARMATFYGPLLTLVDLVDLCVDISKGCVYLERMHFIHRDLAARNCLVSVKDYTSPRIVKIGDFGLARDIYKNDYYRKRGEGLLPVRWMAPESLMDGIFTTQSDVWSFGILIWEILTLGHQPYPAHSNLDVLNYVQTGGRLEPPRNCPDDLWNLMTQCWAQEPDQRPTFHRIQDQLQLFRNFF
Procedure, shortened: (§2)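 Compounds, as 100-fold DMSO stocks, were dispensed first, then substrate mix was added (ATP 2 mM, AQT0101 26 μM, in 50 mM HEPES pH 7.5/10 mM MgCl2). Reactions ran at 30 °C with fluorescence logged every 2 min over 120 min. Apparent inhibition constants came from fitting rates to Morrison's tight-binding equation.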

[4] = molecular target: T3, ALK L1196M/G1202R (Homo sapiens, UniProt Q9UM73, G1202R/L1196M); test: Biochemical kinase assay, ALK L1196M/G1202R kinase domain; settings: apparent inhibitory constant, Morrison equation; ATP 2 mM in substrate solution; read-out: ALK-L1196M-G1202R Ki^app
T3 construct: purchased SignalChem A19-12NG
T3 sequence (Q9UM73 1116-1392 L1196M/G1202R limits assumed): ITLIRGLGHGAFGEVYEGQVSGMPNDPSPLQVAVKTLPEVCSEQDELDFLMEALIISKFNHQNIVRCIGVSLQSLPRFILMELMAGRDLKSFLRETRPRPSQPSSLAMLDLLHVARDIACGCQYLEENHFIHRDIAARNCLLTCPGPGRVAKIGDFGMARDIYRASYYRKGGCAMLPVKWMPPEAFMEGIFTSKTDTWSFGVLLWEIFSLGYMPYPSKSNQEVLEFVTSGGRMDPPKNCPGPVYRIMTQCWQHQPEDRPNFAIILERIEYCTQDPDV
Procedure, shortened: (§3)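 Apparent Ki values come from fitting initial reaction rates against inhibitor concentration to the Morrison equation. Rates were taken from the linear phase of fluorogenic substrate phosphorylation (AQT0101 for ALK and ROS1, AQT0104 for TRKA; 26 μM in substrate solution with 2 mM ATP), monitored at 485 nm over 120 min at 30° C.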

[5] = molecular target: T4, TRKA-wt (Homo sapiens, UniProt P04629); test: Biochemical kinase assay, TRKA-wt kinase domain; settings: apparent inhibitory constant, Morrison equation; ATP 2 mM in substrate solution; read-out: TRKA-wt Ki^app
T4 construct: or TRKA-wt (1 nM, BPS Bio, 40280) kinase domains in buffer; purchased BPS Bio 40280
T4 sequence (P04629 510-781 limits assumed): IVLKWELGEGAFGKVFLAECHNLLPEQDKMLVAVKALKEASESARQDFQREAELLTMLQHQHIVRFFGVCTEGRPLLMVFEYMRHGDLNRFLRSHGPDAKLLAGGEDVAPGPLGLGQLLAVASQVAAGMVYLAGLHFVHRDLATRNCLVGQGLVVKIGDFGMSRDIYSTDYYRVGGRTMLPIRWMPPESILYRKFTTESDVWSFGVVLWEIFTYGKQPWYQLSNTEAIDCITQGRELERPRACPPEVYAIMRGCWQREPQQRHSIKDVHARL
Procedure, shortened: as §3

[6] = molecular target: T5, ALK-wt (Homo sapiens, UniProt Q9UM73); test: Biochemical kinase assay, ALK-wt kinase domain; settings: apparent inhibitory constant, Morrison equation; ATP 2 mM in substrate solution; read-out: ALK-wt Ki^app
T5 construct: purchased Carna 08-518
T5 sequence (Q9UM73 1116-1392 limits assumed): as the sequence (Q9UM73 1116-1392 L1196M/G1202R limits assumed) above, with M81L, R87G counted along it
Procedure, shortened: as §3

[7] = molecular target: T6, Ba/F3 cells EML4-ALK wt (variant 1) (Homo sapiens, UniProt Q9UM73); test: Ba/F3 cell proliferation assay, EML4-ALK wt (variant 1); type: cell-based; settings: 72 hours, CellTiter-Glo
T6 construct: echinoderm microtubule-associated protein-like 4 (EML4) gene and the ALK tyrosine kinase domain; host or cells: Ba/F3 (RIKEN), retroviral pMSCV-puro; the other entry of the earlier key: EML4 (Q9HC35, Echinoderm microtubule-associated protein-like 4)
T6 sequence (Q9UM73 with tags, fused parts or gaps): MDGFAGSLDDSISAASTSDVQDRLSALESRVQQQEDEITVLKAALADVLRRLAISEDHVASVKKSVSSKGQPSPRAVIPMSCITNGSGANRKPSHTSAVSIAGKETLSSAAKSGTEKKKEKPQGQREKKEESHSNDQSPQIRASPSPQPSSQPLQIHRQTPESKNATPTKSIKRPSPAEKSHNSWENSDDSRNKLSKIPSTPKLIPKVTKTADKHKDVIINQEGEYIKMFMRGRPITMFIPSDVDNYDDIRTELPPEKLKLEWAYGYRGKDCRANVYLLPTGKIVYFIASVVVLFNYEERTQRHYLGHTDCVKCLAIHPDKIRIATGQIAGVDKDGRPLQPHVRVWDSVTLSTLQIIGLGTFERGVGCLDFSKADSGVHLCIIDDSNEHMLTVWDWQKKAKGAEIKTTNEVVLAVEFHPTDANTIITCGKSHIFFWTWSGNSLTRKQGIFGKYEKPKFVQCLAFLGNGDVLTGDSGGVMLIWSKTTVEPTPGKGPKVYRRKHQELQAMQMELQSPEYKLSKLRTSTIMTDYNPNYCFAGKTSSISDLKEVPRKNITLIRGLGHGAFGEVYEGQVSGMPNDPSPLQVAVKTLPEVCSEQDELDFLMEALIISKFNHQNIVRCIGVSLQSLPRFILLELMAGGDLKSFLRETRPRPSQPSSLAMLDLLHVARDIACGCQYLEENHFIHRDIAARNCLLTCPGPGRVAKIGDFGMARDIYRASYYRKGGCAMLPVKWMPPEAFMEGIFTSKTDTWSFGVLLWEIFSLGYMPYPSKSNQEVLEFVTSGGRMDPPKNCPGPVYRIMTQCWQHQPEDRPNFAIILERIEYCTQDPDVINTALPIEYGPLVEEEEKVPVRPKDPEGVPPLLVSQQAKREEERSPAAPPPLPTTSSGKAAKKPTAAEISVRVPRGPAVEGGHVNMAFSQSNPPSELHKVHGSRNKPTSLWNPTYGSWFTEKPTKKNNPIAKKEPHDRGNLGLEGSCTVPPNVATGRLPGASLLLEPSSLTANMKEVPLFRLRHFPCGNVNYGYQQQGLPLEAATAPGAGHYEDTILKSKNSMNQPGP
Procedure, shortened: (§4)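 Proliferation of fusion-driven Ba/F3 monoclones (grown without IL-3, puromycin 0.8 μg/mL) is followed over 72 hours of treatment with a 3-fold compound dilution series. ATP content is read by CellTiter-Glo luminescence, and IC50 is derived by four-parameter logistic fitting of percent inhibition.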

[8] = molecular target: T7, Ba/F3 cells EML4-ALK L1196M/G1202R (variant 1) (Homo sapiens, UniProt Q9UM73, G1202R/L1196M); test: Ba/F3 cell proliferation assay, EML4-ALK L1196M/G1202R (variant 1); type: cell-based; settings: 72 hours, CellTiter-Glo
T7 construct: echinoderm microtubule-associated protein-like 4 (EML4) gene and the ALK tyrosine kinase domain; host or cells: Ba/F3 (RIKEN), retroviral pMSCV-puro; the other entry of the earlier key: EML4 (Q9HC35, Echinoderm microtubule-associated protein-like 4)
T7 sequence (Q9UM73 with tags, fused parts or gaps L1196M/G1202R): as the sequence (Q9UM73 with tags, fused parts or gaps) above, with L635M, G641R counted along it
Procedure, shortened: as §4

[9] = molecular target: T8, ROS1-wt (Homo sapiens, UniProt P08922); test: Biochemical kinase assay, ROS1-wt kinase domain; settings: apparent inhibitory constant, Morrison equation; ATP 2 mM in substrate solution; read-out: ROS1-wt Ki^app
T8 construct: purchased Carna 08-163
T8 sequence (P08922 1945-2222 limits assumed): as the sequence (P08922 1945-2222 G2032R limits assumed) above, with R88G counted along it
Procedure, shortened: as §2

[10] = molecular target: T9, Ba/F3 cells TPM3-TRKA (Homo sapiens, UniProt P04629); test: Ba/F3 cell proliferation assay, TPM3-TRKA; type: cell-based; settings: 72 hours, CellTiter-Glo, read-out: TPM3-NTRK1-wt IC50
T9 construct: host or cells: Ba/F3 (RIKEN), retroviral pMSCV-puro; the other entry of the earlier key: TPM3 (P06753, Tropomyosin alpha-3 chain)
T9 sequence (P04629 510-796 limits assumed): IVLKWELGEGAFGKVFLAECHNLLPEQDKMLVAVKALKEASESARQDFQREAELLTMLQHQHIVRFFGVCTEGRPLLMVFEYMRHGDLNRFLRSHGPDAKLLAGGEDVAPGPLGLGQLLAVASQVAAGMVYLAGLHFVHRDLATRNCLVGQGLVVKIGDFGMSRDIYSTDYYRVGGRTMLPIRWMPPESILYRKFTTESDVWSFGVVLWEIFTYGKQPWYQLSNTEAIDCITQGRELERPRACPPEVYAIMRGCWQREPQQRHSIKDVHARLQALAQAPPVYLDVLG
Procedure, shortened: as §4

[11] = molecular target: T10, Ba/F3 cells CD74-ROS1 wild-type (wt) (Homo sapiens, UniProt P08922); test: Ba/F3 cell proliferation assay, CD74-ROS1 wild-type; type: cell-based; settings: 72 hours, CellTiter-Glo
T10 construct: fusion of the C-terminus of ROS1 with the N-terminus of various partner proteins; host or cells: Ba/F3 (RIKEN), retroviral pMSCV-puro; the other entry of the earlier key: CD74 (P04233, HLA class II histocompatibility antigen gamma chain)
T10 sequence (P08922 1883-2347 limits assumed): as the sequence (P08922 1883-2347 G2032R limits assumed) above, with R150G counted along it
Procedure, shortened: as §1

Row | Compound | TPM3-NTRK1-wt/CD74-ROS1-G2032R selectivity ratio [1] | TPM3-NTRK1-wt/CD74-ROS1-wt selectivity ratio [1] | TPM3-NTRK1-wt/EML4-ALK-L1196M-G1202R selectivity ratio [1] | TPM3-NTRK1-wt/EML4-ALK-wt selectivity ratio [1] | IC50 [2] | Ki [3] | Ki [4] | Ki [5] | Ki [6] | IC50 [7] | IC50 [8] | Ki [9] | IC50 [10] | IC50 [11]
1 | CCn1nnc2c1-c1cnc(N)c(c1)O[C@H](C)c1cc(F)ccc1-c1cc(Cl)nn1C2 [Example 54, (19R)-10-chloro-3-ethyl-16-fluoro-19-methyl-20-oxa-3,4,5,8,9,23-hexaazapentacyclo[19.3.1.0^2,^6.0^8,^12.0^13,^18]pentacosa-1(24),2(6),4,9,11,13,15,17,21(25),22-decaen-22-amine] | A (bin A for very high selectivity, ratio >30-fold) | A (bin A for very high selectivity, ratio >30-fold) | D (bin D for low selectivity, ratio <1) | C (bin C for moderate selectivity, ratio ≥1) | 0.0001 to 0.05 µM | < 0.05 µM | 0.05 to 0.5 µM | 0.05 to 0.5 µM | < 0.05 µM | 0.0001 to 0.05 µM | 0.05 to 0.5 µM | < 0.05 µM | 0.05 to 0.5 µM | 0.0001 to 0.05 µM
2 | C[C@H]1Oc2cc(cnc2N)-c2c(cnn2CC(F)F)Cn2nc(Cl)cc2-c2ccc(F)cc21 [Example 55, (19R)-10-chloro-3-(2,2difluoroethyl)-16-fluoro-19-methyl-20-oxa-3,4,8,9,23-pentaazapentacyclo[19.3.1.0^2,^6.0^8,^12.0^13,^18]pentacosa-1(24),2(6),4,9,11,13,15,17,21(25),22-decaen-22-amine] | A (bin A for very high selectivity, ratio >30-fold) | A (bin A for very high selectivity, ratio >30-fold) | C (bin C for moderate selectivity, ratio ≥1) | A (bin A for very high selectivity, ratio >30-fold) | 0.0001 to 0.05 µM | < 0.05 µM | 0.05 to 0.5 µM | > 0.5 µM | < 0.05 µM | 0.0001 to 0.05 µM | 0.05 to 0.5 µM | < 0.05 µM | > 0.5 µM | 0.0001 to 0.05 µM
3 | CCn1nc(C)c2c1-c1cnc(N)c(c1)O[C@H](C)c1cc(F)ccc1-c1ncnn1C2 [Example 56, (19R)-3-ethyl-16-fluoro-5,19-dimethyl-20-oxa-3,4,8,9,11,23-hexaazapentacyclo[19.3.1.0^2,^6.0^8,^12.0^13,^18]pentacosa-1(24),2(6),4,9,11,13,15,17,21(25),22-decaen-22-amine] | A (bin A for very high selectivity, ratio >30-fold) | A (bin A for very high selectivity, ratio >30-fold) | C (bin C for moderate selectivity, ratio ≥1) | B (bin B for high selectivity, ratio >10-fold) | 0.0001 to 0.05 µM | < 0.05 µM | < 0.05 µM | 0.05 to 0.5 µM | < 0.05 µM | 0.0001 to 0.05 µM | 0.05 to 0.5 µM | < 0.05 µM | 0.05 to 0.5 µM | 0.0001 to 0.05 µM
4 | CCc1noc2c1-c1cnc(N)c(c1)O[C@H](C)c1cc(F)ccc1-c1nnnn1C2 [Example 58, (19R)-3-ethyl-16-fluoro-19-methyl-5,20-dioxa-4,8,9,10,11,23-hexaazapentacyclo[19.3.1.0^2,^6.0^8,^12.0^13,^18]pentacosa-1(24),2(6),3,9,11,13,15,17,21(25),22-decaen-22-amine] | C (bin C for moderate selectivity, ratio ≥1) | A (bin A for very high selectivity, ratio >30-fold) | D (bin D for low selectivity, ratio <1) | C (bin C for moderate selectivity, ratio ≥1) | 0.05 to 0.5 µM | 0.05 to 0.5 µM | 0.05 to 0.5 µM | 0.05 to 0.5 µM | < 0.05 µM | 0.05 to 0.5 µM | > 0.5 µM | < 0.05 µM | 0.05 to 0.5 µM | 0.0001 to 0.05 µM
5 | C[C@H]1Oc2cc(cnc2N)-c2c(c(Cl)nn2CC(F)F)Cc2nn(C)nc2-c2ccc(F)cc21 [Example 60, (19R)-5-chloro-3-(2,2difluoroethyl)-16-fluoro-10,19-dimethyl-20-oxa-3,4,9,10,11,23-hexaazapentacyclo[19.3.1.0^2,^6.0^8,^12.0^13,^18]pentacosa-1(24),2(6),4,8,11,13,15,17,21(25),22-decaen-22-amine] | A (bin A for very high selectivity, ratio >30-fold) | A (bin A for very high selectivity, ratio >30-fold) | B (bin B for high selectivity, ratio >10-fold) | A (bin A for very high selectivity, ratio >30-fold) | 0.0001 to 0.05 µM | 0.05 to 0.5 µM | 0.05 to 0.5 µM | > 0.5 µM | 0.05 to 0.5 µM | 0.05 to 0.5 µM | > 0.5 µM | < 0.05 µM | > 0.5 µM | 0.0001 to 0.05 µM
6 | C[C@H]1Oc2cc(cnc2N)-c2c(cnn2CC2CC2)Cc2nn(C)cc2-c2ccc(F)cc21 [Example 61, (19R)-3-(cyclopropylmetbyl)-16-fluoro-10,19-dimethyl-20-oxa-3,4,9,10,23-pentaazapentacyclo[19.3.1.0^2,^6.0^8,^12.0^13,^18]pentacosa-1(24),2(6),4,8,11,13,15,17,21(25),22-decaen-22-amine] | A (bin A for very high selectivity, ratio >30-fold) | A (bin A for very high selectivity, ratio >30-fold) | A (bin A for very high selectivity, ratio >30-fold) | A (bin A for very high selectivity, ratio >30-fold) | 0.0001 to 0.05 µM | < 0.05 µM | < 0.05 µM | > 0.5 µM | < 0.05 µM | 0.0001 to 0.05 µM | 0.0001 to 0.05 µM | < 0.05 µM | > 0.5 µM | 0.0001 to 0.05 µM
